Data on two compounds can be found in ChEMBL document CHEMBL1152828, “Rare dipeptide and urea derivatives from roots of Moringa oleifera as potential anti-inflammatory and antinociceptive agents” (Eur J Med Chem, 2009).

Structures are written as SMILES. The source made the active and inactive calls. No cut-off for these calls is given here.

Experiment [1] deals with Transient receptor potential cation channel subfamily V member 1 (Rattus norvegicus, UniProt O35433). In words: Antagonist activity at TRPV1 in rat DRG neuron assessed as inhibition of calcium uptake. It is filed as functional.
In experiment [2] the test system is Blood. In words: Inhibition of LPS-induced IL2 production in rat whole blood at 12.5 to 50 uM by ELISA. The experiment is classed as functional, tissue-based.
The test system of experiment [3] is Mus musculus. In words: Analgesic activity in intracerebrally dosed mouse assessed as increase in time course of latency for thermal stimulation by hotplate test. It is filed as functional, organism-based.
For experiment [4], the system named is Blood. In words: Inhibition of LPS-induced IL6 production in rat whole blood at 12.5 to 50 uM by ELISA. It is filed as functional, tissue-based. Background: In an ELISA, binding on a coated surface is turned into a signal by an enzyme label.
The subject of experiment [5] is Blood. In words: Inhibition of LPS-induced TNFalpha production in rat whole blood at 12.5 to 50 uM by ELISA. The experiment is classed as functional, tissue-based.

Transient receptor potential cation channel subfamily V member 1, sequence (O35433 whole entry): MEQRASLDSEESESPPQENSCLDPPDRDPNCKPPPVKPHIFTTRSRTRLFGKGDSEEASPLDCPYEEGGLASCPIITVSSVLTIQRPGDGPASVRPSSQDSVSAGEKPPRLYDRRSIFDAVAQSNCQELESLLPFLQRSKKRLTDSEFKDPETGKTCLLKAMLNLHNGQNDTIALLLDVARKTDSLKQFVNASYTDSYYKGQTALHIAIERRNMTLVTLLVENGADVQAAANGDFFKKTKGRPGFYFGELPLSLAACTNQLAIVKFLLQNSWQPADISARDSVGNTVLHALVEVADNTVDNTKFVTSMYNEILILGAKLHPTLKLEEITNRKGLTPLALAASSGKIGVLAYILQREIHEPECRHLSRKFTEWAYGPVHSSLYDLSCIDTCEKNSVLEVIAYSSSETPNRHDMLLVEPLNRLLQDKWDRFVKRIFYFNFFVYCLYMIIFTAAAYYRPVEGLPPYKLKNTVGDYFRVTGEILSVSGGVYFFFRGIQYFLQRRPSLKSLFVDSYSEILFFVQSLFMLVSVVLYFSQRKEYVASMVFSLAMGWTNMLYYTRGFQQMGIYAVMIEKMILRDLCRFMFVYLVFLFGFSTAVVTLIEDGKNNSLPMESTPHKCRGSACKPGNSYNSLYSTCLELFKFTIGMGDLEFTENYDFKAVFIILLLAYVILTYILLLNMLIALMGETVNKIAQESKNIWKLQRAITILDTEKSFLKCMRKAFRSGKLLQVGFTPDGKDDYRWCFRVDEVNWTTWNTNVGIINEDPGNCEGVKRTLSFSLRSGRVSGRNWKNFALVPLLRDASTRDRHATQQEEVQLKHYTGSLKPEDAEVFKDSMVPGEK

Consider `O=C(NCc1ccccc1)NCc1ccccc1`, for which the IC50 in experiment [1] came to 0.01 µM. In addition, the outcome in experiment [2] was Active. Also, the Activity entry in experiment [3] was “Dose-dependent effect”.
As to `CC(=O)OCC(Cc1ccccc1)NC(=O)C(Cc1ccccc1)NC(=O)c1ccccc1` (configuration not stated), the result in experiment [4], in experiment [5] and in experiment [2] was Active. Also, the Activity entry in experiment [3] was “Dose-dependent effect”.

What is called IC50 is the concentration that gives 50% inhibition.
